Experimental findings from patent publication US20260297092A1, “PYRAZOLOPYRIMIDINE DERIVATIVES AS INHIBITORS OF NLRP3” (Takeda Pharmaceutical Company Limited, priority 2023, published 2026) are described below.

By IC50 is commonly meant the concentration at which inhibition is half-maximal. High values mean weaker potency in that assay, low ones greater potency in that assay.

Where only a bound is given, the exact number is not on record here.

Test [1] relates to NLRP3 inflammasome (IL-1β production in THP-1 cells). In words: IL-1β TR-FRET Assay (percentage of inhibition at 300 nM, 6 μM or 10 μM). It is filed as cell-based, human. The conditions noted are these: LPS priming, ATP activation; for inhibition at 0.3 µM / inhibition at 6 µM: Homo sapiens; for inhibition at 0.3 µM: THP-1, 300 nM, read-out: IL-1β inhibitory rate at 300 nM (%); for inhibition at 6 µM: THP-1, 6 μM, read-out: IL-1β inhibitory rate at 6 μM (%). In outline: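 THP-1 cells were differentiated with 25 ng/mL IFN-γ for 24 h, primed with 50 ng/mL LPS in serum-free medium for 24 h, then given compound for 30 min before 20 mM ATP for 2 h. Supernatant IL-1β was measured by HTRF after 16-24 h at room temperature. Inhibition was normalized between DMSO (high) and 3 μM MCC-950 (low).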
Background: TR-FRET usually uses a lanthanide donor and a delayed reading to cut background.

Test [2] relates to TNF-α (NF-κB pathway, THP-1 cells). In words: TNF-α Assay (IC50). It is filed as cell-based, human. The conditions noted are these: 600 ng/mL LPS, 3 hours. The method, then:
TNF-α Assay (Reported as IC50)
Monocytic THP-1 cells (ATCC: TIB-202) were maintained in accordance with the provider's instructions in RPMI media (Life Technologies, Cat #A10491-01); RPMI was supplemented with 10% heat inactivated fetal bovine serum (Hyclone Cat #SH30396.03). The cells were differentiated into macrophages by the addition of 25 ng/mL IFN-7 for 24 hours at 37° C./5% CO2. Media was exchanged with fresh media with no FBS. The cells were plated at 40,000 cells per well in 384-well flat-bottom cell culture plates (Costar 3764) containing compounds (added in 1:1000) in a 1:3.16 serial dilution series in DMSO and were incubated for 30 minutes at 37° C./5% CO2. The NF-κB pathway was activated with the addition of 600 ng/mL LPS and the cells were incubated for 3 hours at 37° C./5% CO2. At the end of the incubation period, supernatant ([…]) was removed, and TNF-alpha were monitored using an ELISA (Human TNF-α ELISA, R&D systems, Cat #DY210) according to the manufacturer's instructions. 100% inhibition is determined with positive control, TPCA-1.
The IC50 values in the TNF-α assay were calculated from a plot of percentage of inhibition versus the inhibitor concentration by a logistics curve fit according to: Y=[Bottom+(Top−Bottom)]/(1+10^[(Log IC50−X)·Hill Slope], where Y was the […] at the inhibitor concentration, X, “Bottom” was the lowest inhibition value, i.e., 0%, “Top” was the maximum inhibition value, i.e., 100%, and the “Hill Slope” described the slope of the sigmoidal curve between the “Bottom” and “Top” values. The curve fitting was conducted with internally developed software.

Take `Cc1cc(C)c(-n2cc3c(=O)[nH]c(C(C)C)nc3n2)c(O)c1` [Example 10, 2-(2-hydroxy-4,6-dimethylphenyl)-6-(propan-2-yl)-2,5-dihydro-4H-pyrazolo[3,4-d]pyrimidin-4-one]: the inhibition at 0.3 µM in test [1] came out at 98%. For the same molecule, the IC50 in test [2] (Homo sapiens) was greater than 30 µM.

For the molecule `COCc1nc2nn(-c3c(C)cc(C4CC4)cc3C)cc2c(=O)[nH]1` [Example 166, 2-(4-cyclopropyl-2,6-dimethylphenyl)-6-(methoxymethyl)-2,5-dihydro-4H-pyrazolo[3,4-d]pyrimidin-4-one], in test [1], the inhibition at 0.3 µM was 103%. Moreover, the IC50 in test [2] (Homo sapiens) is greater than 30 µM.

On to `Cc1cc(C)c(-n2cc3c(=O)[nH]c(-c4ncccn4)nc3n2)c(O)c1` [Example 34, 2-(2-hydroxy-4,6-dimethylphenyl)-6-(pyrimidin-2-yl)-2,5-dihydro-4H-pyrazolo[3,4-d]pyrimidin-4-one], for which the inhibition at 0.3 µM in test [1] is 98%. Also, the IC50 in test [2] (Homo sapiens) was greater than 30 µM.

Consider `Cc1cc(-c2nc3nn(-c4c(C)cc(C5CC5)cc4C)cc3c(=O)[nH]2)on1` [Example 275, 2-(4-cyclopropyl-2,6-dimethylphenyl)-6-(3-methyl-1,2-oxazol-5-yl)-2,5-dihydro-4H-pyrazolo[3,4-d]pyrimidin-4-one], for which, in test [1], the inhibition at 6 µM was 101%. In test [2] (Homo sapiens), this molecule came in with an IC50 of 2.26 µM.

As to `Cc1cc(C2CC2)cc(C)c1-n1cc2c(=O)[nH]c(C3CCCO3)nc2n1` (single isomer, unassigned) [Example 228, 2-(4-cyclopropyl-2,6-dimethylphenyl)-6-[(2S)-oxolan-2-yl]-2,5-dihydro-4H-pyrazolo[3,4-d]pyrimidin-4-one or 2-(4-cyclopropyl-2,6-dimethylphenyl)-6-[(2R)-oxolan-2-yl]-2,5-dihydro-4H-pyrazolo[3,4-d]pyrimidin-4-one (HPLC Method A: tR2)], in test [1] (300 nM, 0.3 µM), the “IL-1β inhibitory rate at 300 nM (%)” value is reported as 79%. The molecule also yielded an IC50 in test [2] greater than 30 µM.

For the molecule `Cc1cc(C)c(-n2cc3c(=O)[nH]c(OCCCCN(C)C)nc3n2)c(O)c1` [Example 129, 6-[4-(dimethylamino)butoxy]-2-(2-hydroxy-4,6-dimethylphenyl)-2,5-dihydro-4H-pyrazolo[3,4-d]pyrimidin-4-one], in test [1], the inhibition at 0.3 µM stood at 98%. In addition, in test [2] (Homo sapiens), the IC50 is greater than 30 µM.

For `CCOc1nc2nn(-c3c(C)cc(OC(F)(F)F)cc3F)cc2c(=O)[nH]1` [Example 125, 6-ethoxy-2-[2-fluoro-6-methyl-4-(trifluoromethoxy)phenyl]-2,5-dihydro-4H-pyrazolo[3,4-d]pyrimidin-4-one], in test [1], the inhibition at 0.3 µM was 100%. The molecule further showed an IC50 in test [2] (Homo sapiens) greater than 30 µM.

Take `Cc1cc(C2CC2)cc(C)c1-n1cc2c(=O)[nH]c(O[C@@H]3CCOC3)nc2n1` [Example 293, 2-(4-cyclopropyl-2,6-dimethylphenyl)-6-{[(3R)-oxolan-3-yl]oxy}-2,5-dihydro-4H-pyrazolo[3,4-d]pyrimidin-4-one]: the inhibition at 6 µM in test [1] came to 99%. This molecule registered an IC50 in test [2] (Homo sapiens) greater than 30 µM.

As for `Cc1cc(C)c(-n2cc3c(=O)[nH]c(CCC(C)(F)F)nc3n2)c(O)c1` [Example 40, 6-(3,3-difluorobutyl)-2-(2-hydroxy-4,6-dimethylphenyl)-2,5-dihydro-4H-pyrazolo[3,4-d]pyrimidin-4-one], in test [1], the inhibition at 0.3 µM amounted to 100%. This molecule also had an IC50 in test [2] (Homo sapiens) greater than 30 µM.

For the molecule `Cc1ccc(-n2cc3c(=O)[nH]c(OCC(C)(F)F)nc3n2)c(O)c1` [Example 86, 6-(2,2-difluoropropoxy)-2-(2-hydroxy-4-methylphenyl)-2,5-dihydro-4H-pyrazolo[3,4-d]pyrimidin-4-one], the inhibition at 0.3 µM in test [1] worked out at 85%. Further, the IC50 in test [2] (Homo sapiens) was greater than 30 µM.

In the case of `Cc1cc(C2CC2)cc(C)c1-n1cc2c(=O)[nH]c(-c3ccn(C)n3)nc2n1` [Example 297, 2-(4-cyclopropyl-2,6-dimethylphenyl)-6-(1-methyl-1H-pyrazol-3-yl)-2,5-dihydro-4H-pyrazolo[3,4-d]pyrimidin-4-one], the inhibition at 6 µM in test [1] amounted to 90%. Also, the IC50 in test [2] (Homo sapiens) is greater than 30 µM.

For `Cc1cc(C)c(-n2cc3c(=O)[nH]c(-c4ccncn4)nc3n2)c(O)c1` [Example 2, 2-(2-hydroxy-4,6-dimethylphenyl)-6-(pyrimidin-4-yl)-2,5-dihydro-4H-pyrazolo[3,4-d]pyrimidin-4-one], the inhibition at 0.3 µM in test [1] stood at 100%. The same molecule had an IC50 in test [2] (Homo sapiens) greater than 30 µM.

In the case of `Cc1ccc(-n2nc3nc(-c4ccccn4)[nH]c(=O)c3c2C)c(O)c1` [Example 124, 2-(2-hydroxy-4-methylphenyl)-3-methyl-6-(pyridin-2-yl)-2,5-dihydro-4H-pyrazolo[3,4-d]pyrimidin-4-one], the inhibition at 0.3 µM in test [1] amounted to 97%. The molecule also registered an IC50 in test [2] (Homo sapiens) greater than 30 µM.

Consider `Cc1cc(C)c(-n2cc3c(=O)[nH]c(-c4ccccc4Cl)nc3n2)c(O)c1` [Example 45, 6-(2-chlorophenyl)-2-(2-hydroxy-4,6-dimethylphenyl)-2,5-dihydro-4H-pyrazolo[3,4-d]pyrimidin-4-one], for which the inhibition at 0.3 µM in test [1] was determined as 100%. The molecule further displayed an IC50 in test [2] (Homo sapiens) greater than 30 µM.

For the molecule `CCOc1nc2nn(-c3c(C)cc(C)cc3C(F)F)cc2c(=O)[nH]1` [Example 159, 2-[2-(difluoromethyl)-4,6-dimethylphenyl]-6-ethoxy-2,5-dihydro-4H-pyrazolo[3,4-d]pyrimidin-4-one], the inhibition at 0.3 µM in test [1] is 103%. The molecule further returned an IC50 in test [2] (Homo sapiens) greater than 30 µM.

As to `COC[C@H](C)Oc1nc2nn(-c3c(F)cc(C4CC4)cc3C(F)F)cc2c(=O)[nH]1` [Example 205, 2-[4-cyclopropyl-2-(difluoromethyl)-6-fluorophenyl]-6-{[(2S)-1-methoxypropan-2-yl]oxy}-2,5-dihydro-4H-pyrazolo[3,4-d]pyrimidin-4-one], the inhibition at 0.3 µM in test [1] was determined as 95%. The IC50 in test [2] (Homo sapiens) was greater than 30 µM.

As for `CCOc1nc2nn(-c3ccc(C)cc3C)cc2c(=O)[nH]1` [Example 82, 2-(2,4-dimethylphenyl)-6-ethoxy-2,5-dihydro-4H-pyrazolo[3,4-d]pyrimidin-4-one], in test [1], the inhibition at 0.3 µM is 98%. Moreover, in test [2] (Homo sapiens), the IC50 was greater than 30 µM.

For the molecule `Cc1cc(C)c(-n2cc3c(=O)[nH]c(C4CCCCO4)nc3n2)c(O)c1C` (stereo not shown) [Example 81, 2-(2-hydroxy-3,4,6-trimethylphenyl)-6-(oxan-2-yl)-2,5-dihydro-4H-pyrazolo[3,4-d]pyrimidin-4-one], in test [1], the inhibition at 0.3 µM worked out at 97%. The half-maximal inhibitory concentration (IC50) in test [2] (Homo sapiens) was greater than 30 µM.

`Cc1cc(C)c(-n2cc3c(=O)[nH]c(OCC(C)(F)F)nc3n2)c(O)c1` [Example 42, 6-(2,2-difluoropropoxy)-2-(2-hydroxy-4,6-dimethylphenyl)-2,5-dihydro-4H-pyrazolo[3,4-d]pyrimidin-4-one]: the inhibition at 0.3 µM in test [1] is 97%. In test [2] (Homo sapiens), this molecule registered an IC50 greater than 30 µM.

Take `CCOc1nc2nn(-c3c(F)cc(C(F)(F)F)cc3Br)cc2c(=O)[nH]1` [Example 54, 2-[2-bromo-6-fluoro-4-(trifluoromethyl)phenyl]-6-ethoxy-2,5-dihydro-4H-pyrazolo[3,4-d]pyrimidin-4-one]: in test [1], the inhibition at 0.3 µM amounted to 100%. The molecule further showed an IC50 in test [2] (Homo sapiens) greater than 30 µM.

`COC(C)(C)c1nc2nn(-c3c(C)cc(C)cc3O)cc2c(=O)[nH]1` [Example 85, 2-(2-hydroxy-4,6-dimethylphenyl)-6-(2-methoxypropan-2-yl)-2,5-dihydro-4H-pyrazolo[3,4-d]pyrimidin-4-one]: the inhibition at 0.3 µM in test [1] worked out at 92%. For the same molecule, the IC50 in test [2] (Homo sapiens) is greater than 30 µM.

`Cn1ccc(-c2nc3nn(-c4c(F)cc(C5CC5)cc4C(F)F)cc3c(=O)[nH]2)n1` [Example 299, 2-[4-cyclopropyl-2-(difluoromethyl)-6-fluorophenyl]-6-(1-methyl-1H-pyrazol-3-yl)-2,5-dihydro-4H-pyrazolo[3,4-d]pyrimidin-4-one]: the inhibition at 6 µM in test [1] worked out at 99%. In addition, the half-maximal inhibitory concentration (IC50) in test [2] (Homo sapiens) is greater than 30 µM.

Regarding `CCOc1nc2nn(-c3c(F)cc(Br)cc3Br)cc2c(=O)[nH]1` [Example 128, 2-(2,4-dibromo-6-fluorophenyl)-6-ethoxy-2,5-dihydro-4H-pyrazolo[3,4-d]pyrimidin-4-one], the inhibition at 0.3 µM in test [1] is 97%. The same molecule yielded an IC50 in test [2] (Homo sapiens) greater than 30 µM.
